Data as given in US20240150369A1, “CYCLIN-DEPENDENT KINASE INHIBITING COMPOUNDS FOR THE TREATMENT OF MEDICAL DISORDERS” (G1 Therapeutics, Inc., priority 2020, published 2024).

Assays:
Format in all cases: biochemical
CDK3-CYCLIN-E = CDK3-CYCLIN-E (Homo sapiens (Human), UniProt Q00526); experiment: CDK3-Cyclin-E kinase assay (Nanosyn, Caliper microfluidic); details: 12-point dose-response, singlicate, at Km for ATP
Experimental: (§1) Selected compounds disclosed herein were tested in kinase assays by Nanosyn (Santa Clara, CA) to determine their inhibitory effect on these CDKs. The assays were performed using microfluidic kinase detection technology (Caliper Assay Platform). The compounds were tested in 12-point dose-response format in singlicate at Km for ATP.

CDK7 = CDK7 (Homo sapiens (Human), UniProt P50613); experiment: CDK7 kinase assay (Nanosyn, Caliper microfluidic); details: 12-point dose-response, singlicate, at Km for ATP
Experimental: as §1

CDK1/Cyclin B1 = CDK1/Cyclin B1 (Homo sapiens (Human), UniProt P06493); experiment: CDK1/Cyclin B1 kinase assay (Nanosyn, Caliper microfluidic); details: 12-point dose-response, singlicate, at Km for ATP; ATP 40 μM; 3 hr
Experimental: as §1, with “ATP. Specifics of each assay are as described below:” for “ATP.”
CDK1/Cyclin B1: Enzyme concentration: 0.08 nM; ATP concentration: 40 μM; Incubation time: 3 hr.

CDK2/Cyclin E = CDK2/Cyclin E (Homo sapiens (Human), UniProt P24941); experiment: CDK2/Cyclin E kinase assay (Nanosyn, Caliper microfluidic); details: 12-point dose-response, singlicate, at Km for ATP; ATP 100 μM; 3 hr
Experimental: as §1, with “ATP. Specifics of each assay are as described below:” for “ATP.”
CDK2/Cyclin E: Enzyme concentration: 0.15 nM; ATP concentration: 100 μM; Incubation time: 3 hr.

CDK4/Cyclin D1 = CDK4/Cyclin D1 (Homo sapiens (Human), UniProt P11802); experiment: CDK4/Cyclin D1 kinase assay (Nanosyn, Caliper microfluidic); details: 12-point dose-response, singlicate, at Km for ATP; ATP 200 μM; 3 hr
Experimental: as §1, with “ATP. Specifics of each assay are as described below:” for “ATP.”
CDK4/Cyclin D1: Enzyme concentration: 1 nM; ATP concentration: 200 μM; Incubation time: 3 hr.

CDK6/Cyclin D3 = CDK6/Cyclin D3 (Homo sapiens (Human), UniProt Q00534); experiment: CDK6/Cyclin D3 kinase assay (Nanosyn, Caliper microfluidic); details: 12-point dose-response, singlicate, at Km for ATP; ATP 300 μM; 3 hr
Experimental: as §1, with “ATP. Specifics of each assay are as described below:” for “ATP.”
CDK6/Cyclin D3: Enzyme concentration: 2 nM; ATP concentration: 300 μM; Incubation time: 3 hr.

CDK2/Cyclin A = CDK2/Cyclin A (Homo sapiens (Human), UniProt P24941); experiment: CDK2/Cyclin A kinase assay (Nanosyn, Caliper microfluidic); details: 12-point dose-response, singlicate, at Km for ATP; ATP 50 μM; 3 hr
Experimental: as §1, with “ATP. Specifics of each assay are as described below:” for “ATP.”
CDK2/Cyclin A: Enzyme concentration: 0.1 nM; ATP concentration: 50 μM; Incubation time: 3 hr.

CDK9/Cyclin T1 = CDK9/Cyclin T1 (Homo sapiens (Human), UniProt P50750); experiment: CDK9/Cyclin T1 kinase assay (Nanosyn, Caliper microfluidic); details: 12-point dose-response, singlicate, at Km for ATP; ATP 10 μM; 17 hr
Experimental: as §1, with “ATP. Specifics of each assay are as described below:” for “ATP.”
CDK9/Cyclin T1: Enzyme concentration: 5 nM; ATP concentration: 10 μM; Incubation time: 17 hr.

CDK6/Cyclin D3, sequence (Q00534 whole entry): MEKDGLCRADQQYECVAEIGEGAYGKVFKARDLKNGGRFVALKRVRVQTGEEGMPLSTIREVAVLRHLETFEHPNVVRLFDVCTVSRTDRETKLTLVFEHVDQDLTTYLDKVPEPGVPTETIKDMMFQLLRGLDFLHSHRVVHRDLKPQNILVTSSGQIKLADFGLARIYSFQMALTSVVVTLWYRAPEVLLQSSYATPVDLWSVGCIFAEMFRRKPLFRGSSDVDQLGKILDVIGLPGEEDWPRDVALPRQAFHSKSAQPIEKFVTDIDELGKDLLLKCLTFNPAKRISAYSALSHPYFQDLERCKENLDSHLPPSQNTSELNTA
CDK6/Cyclin D3, sequence (P30281 whole entry partner): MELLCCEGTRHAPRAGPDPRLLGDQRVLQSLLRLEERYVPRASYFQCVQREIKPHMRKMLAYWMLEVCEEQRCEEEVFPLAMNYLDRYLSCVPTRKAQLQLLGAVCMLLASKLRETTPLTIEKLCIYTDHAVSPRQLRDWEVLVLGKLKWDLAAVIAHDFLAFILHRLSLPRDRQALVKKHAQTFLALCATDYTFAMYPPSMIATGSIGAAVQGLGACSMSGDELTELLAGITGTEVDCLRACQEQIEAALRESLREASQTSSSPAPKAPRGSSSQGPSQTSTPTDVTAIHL
CDK7, sequence (P50613 whole entry): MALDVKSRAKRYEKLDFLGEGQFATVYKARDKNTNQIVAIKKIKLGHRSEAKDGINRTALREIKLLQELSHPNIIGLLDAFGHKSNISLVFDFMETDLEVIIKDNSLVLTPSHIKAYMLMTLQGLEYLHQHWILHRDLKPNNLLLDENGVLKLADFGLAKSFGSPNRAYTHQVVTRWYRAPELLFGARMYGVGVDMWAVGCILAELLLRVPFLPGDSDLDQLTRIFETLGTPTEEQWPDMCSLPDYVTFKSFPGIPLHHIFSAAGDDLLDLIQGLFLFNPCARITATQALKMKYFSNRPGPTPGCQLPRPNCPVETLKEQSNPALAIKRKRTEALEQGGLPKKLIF
CDK7, sequence (P51946 whole entry partner): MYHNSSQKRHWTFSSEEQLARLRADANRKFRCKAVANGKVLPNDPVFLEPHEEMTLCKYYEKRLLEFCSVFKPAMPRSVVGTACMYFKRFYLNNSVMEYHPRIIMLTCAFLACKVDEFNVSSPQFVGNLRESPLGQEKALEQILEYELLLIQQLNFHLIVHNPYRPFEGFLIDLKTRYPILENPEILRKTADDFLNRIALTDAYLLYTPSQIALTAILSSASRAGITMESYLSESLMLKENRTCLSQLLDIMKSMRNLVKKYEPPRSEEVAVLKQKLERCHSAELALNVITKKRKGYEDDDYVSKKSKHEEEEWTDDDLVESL
CDK7, sequence (P51948 whole entry partner): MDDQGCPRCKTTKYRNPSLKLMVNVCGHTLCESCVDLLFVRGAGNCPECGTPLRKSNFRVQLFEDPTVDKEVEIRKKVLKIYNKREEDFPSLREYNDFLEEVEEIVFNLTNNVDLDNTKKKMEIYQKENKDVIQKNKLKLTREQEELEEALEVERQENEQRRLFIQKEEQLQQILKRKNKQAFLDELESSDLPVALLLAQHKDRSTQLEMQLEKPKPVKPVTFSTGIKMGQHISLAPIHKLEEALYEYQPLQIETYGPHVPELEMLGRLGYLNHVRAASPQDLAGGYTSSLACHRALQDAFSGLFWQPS
CDK9/Cyclin T1, sequence (P50750 whole entry): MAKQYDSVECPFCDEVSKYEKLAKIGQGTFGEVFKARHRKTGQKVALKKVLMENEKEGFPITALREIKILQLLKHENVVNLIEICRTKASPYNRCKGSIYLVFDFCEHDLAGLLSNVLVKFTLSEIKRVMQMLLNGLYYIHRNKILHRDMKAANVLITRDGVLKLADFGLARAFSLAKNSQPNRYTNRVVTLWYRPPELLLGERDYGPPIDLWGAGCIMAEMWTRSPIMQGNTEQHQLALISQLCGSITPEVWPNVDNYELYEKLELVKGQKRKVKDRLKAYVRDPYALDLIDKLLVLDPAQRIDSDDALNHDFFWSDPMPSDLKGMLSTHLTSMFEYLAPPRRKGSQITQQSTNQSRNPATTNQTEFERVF
CDK9/Cyclin T1, sequence (O60563 whole entry partner): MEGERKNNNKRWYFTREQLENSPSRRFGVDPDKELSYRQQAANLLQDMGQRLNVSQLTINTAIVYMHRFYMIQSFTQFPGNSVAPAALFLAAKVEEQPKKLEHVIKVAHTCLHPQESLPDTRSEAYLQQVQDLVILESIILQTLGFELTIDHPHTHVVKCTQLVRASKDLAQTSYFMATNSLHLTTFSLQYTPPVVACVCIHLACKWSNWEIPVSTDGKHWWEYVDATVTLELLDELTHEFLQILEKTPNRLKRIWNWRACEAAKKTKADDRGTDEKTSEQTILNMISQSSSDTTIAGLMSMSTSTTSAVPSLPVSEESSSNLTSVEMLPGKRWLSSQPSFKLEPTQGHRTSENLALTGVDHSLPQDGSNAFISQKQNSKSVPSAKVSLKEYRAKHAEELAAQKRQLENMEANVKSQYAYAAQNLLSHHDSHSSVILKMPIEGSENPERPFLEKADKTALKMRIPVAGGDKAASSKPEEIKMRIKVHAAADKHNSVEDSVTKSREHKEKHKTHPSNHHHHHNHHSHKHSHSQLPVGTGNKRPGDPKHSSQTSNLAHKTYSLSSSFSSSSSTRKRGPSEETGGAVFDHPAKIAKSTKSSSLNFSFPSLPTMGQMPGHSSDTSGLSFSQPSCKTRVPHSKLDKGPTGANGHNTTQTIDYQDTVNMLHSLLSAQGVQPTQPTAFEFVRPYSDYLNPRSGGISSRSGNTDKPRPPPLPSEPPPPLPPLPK
CDK4/Cyclin D1, sequence (P11802 whole entry): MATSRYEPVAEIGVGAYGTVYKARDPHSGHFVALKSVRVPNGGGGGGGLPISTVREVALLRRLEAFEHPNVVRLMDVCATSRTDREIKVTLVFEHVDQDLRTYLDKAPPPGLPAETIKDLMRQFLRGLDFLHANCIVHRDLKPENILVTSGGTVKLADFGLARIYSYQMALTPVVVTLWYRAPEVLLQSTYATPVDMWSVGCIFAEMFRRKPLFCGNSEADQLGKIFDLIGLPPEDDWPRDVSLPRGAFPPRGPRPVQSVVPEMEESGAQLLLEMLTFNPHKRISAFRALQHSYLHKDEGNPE
CDK4/Cyclin D1, sequence (P24385 whole entry partner): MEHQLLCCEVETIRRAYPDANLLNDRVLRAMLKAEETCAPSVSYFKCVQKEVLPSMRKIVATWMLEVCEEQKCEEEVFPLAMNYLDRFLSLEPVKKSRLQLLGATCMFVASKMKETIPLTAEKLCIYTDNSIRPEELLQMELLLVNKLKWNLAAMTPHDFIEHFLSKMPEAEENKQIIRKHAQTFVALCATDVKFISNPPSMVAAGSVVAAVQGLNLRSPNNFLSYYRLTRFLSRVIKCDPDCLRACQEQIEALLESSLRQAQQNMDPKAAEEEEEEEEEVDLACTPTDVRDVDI
CDK1/Cyclin B1, sequence (P06493 whole entry): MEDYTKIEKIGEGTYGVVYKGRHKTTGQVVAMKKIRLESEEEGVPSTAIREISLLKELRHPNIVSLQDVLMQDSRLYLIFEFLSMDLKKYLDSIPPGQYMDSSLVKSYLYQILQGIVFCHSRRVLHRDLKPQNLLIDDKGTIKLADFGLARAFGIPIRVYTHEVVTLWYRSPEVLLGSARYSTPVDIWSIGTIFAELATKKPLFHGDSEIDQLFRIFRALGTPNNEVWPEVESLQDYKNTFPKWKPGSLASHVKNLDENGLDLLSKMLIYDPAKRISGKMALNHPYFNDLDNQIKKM
CDK1/Cyclin B1, sequence (P14635 whole entry partner): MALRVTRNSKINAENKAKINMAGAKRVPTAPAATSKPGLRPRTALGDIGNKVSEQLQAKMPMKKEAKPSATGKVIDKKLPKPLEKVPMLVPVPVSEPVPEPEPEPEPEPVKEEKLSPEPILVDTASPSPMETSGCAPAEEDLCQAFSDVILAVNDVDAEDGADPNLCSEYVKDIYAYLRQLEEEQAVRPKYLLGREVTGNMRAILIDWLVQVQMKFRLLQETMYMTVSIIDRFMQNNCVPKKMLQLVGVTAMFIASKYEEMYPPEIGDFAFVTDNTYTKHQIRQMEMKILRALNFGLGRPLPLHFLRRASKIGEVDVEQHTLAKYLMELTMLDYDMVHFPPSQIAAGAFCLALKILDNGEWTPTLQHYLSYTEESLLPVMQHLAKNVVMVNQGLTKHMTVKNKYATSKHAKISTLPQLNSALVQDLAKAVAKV

SMILES | IC50 (CDK3-CYCLIN-E) [nM] | IC50 (CDK7) [nM] | IC50 (CDK1/Cyclin B1) [nM] | IC50 (CDK2/Cyclin E) [nM] | IC50 (CDK4/Cyclin D1) [nM] | IC50 (CDK6/Cyclin D3) [nM] | IC50 (CDK2/Cyclin A) [nM] | IC50 (CDK9/Cyclin T1) [nM]
CN1CCN(C(=O)c2ccc(Nc3ncc4cc5n(c4n3)C3(CCCCC3)CC(=O)N5)cc2)CC1 [Compound 54, 2′-((4-(4-methylpiperazine-1-carbonyl)phenyl)amino)-6′H-spiro[cyclohexane-1,9′-pyrrolo[1,5-a:2,3-d′]dipyrimidin]-7′(8′H)-one] | 8 | 144 | 12 | 1 | 3 | 7 | 2 | 7
O=C1NCC2(CCCCC2)n2c1cc1cnc(Nc3ccc(C(=O)N4CCNCC4)cc3)nc12 [Compound 55, 2′-((4-(piperazine-1-carbonyl)phenyl)amino)-7′,8′-dihydro-6′H-spiro[cyclohexane-1,9′-pyrazino[1′,2′:1,5]pyrrolo[2,3-d]pyrimidin]-6′-one] | 6 | 27 | 5 | 1 | 0.3 | 0.4 | 0.6 | 1
CC1C(=O)Nc2cc3cnc(Nc4ccc(S(=O)(=O)N5CCN(C)CC5)cc4)nc3n2C12CCCCC2 (stereo not shown) [Compound 59, 8′-methyl-2′-((4-((4-methylpiperazin-1-yl)sulfonyl)phenyl)amino)-6′H-spiro[cyclohexane-1,9′-pyrrolo[1,5-a:2,3-d′]dipyrimidin]-7′(8′H)-one] | 57 | 16 | 42 | 3 | 137 | 123 | 5 | 5
O=C(c1ccc(Nc2ncc3cc4n(c3n2)C2(CCCCC2)C(=O)NN4)cc1)N1CCNCC1 [Compound 61, 7′-((4-(piperazine-1-carbonyl)phenyl)amino)-1′,2′-dihydro-3′H-spiro[cyclohexane-1,4′-pyrimido[5′,4′:4,5]pyrrolo[2,1-c][1,2,4]triazin]-3′-one] | 58 | > 1000 | 133 | 4 | 17 | 40 | 17 | 190
CN(C)C(=O)c1ccc(Nc2ncc3cc4n(c3n2)C2(CCCCC2)C(=O)NN4)cc1 [Compound 62, N,N-dimethyl-4-((3′-oxo-2′,3′-dihydro-1′H-spiro[cyclohexane-1,4′-pyrimido[5′,4′:4,5]pyrrolo[2,1-c][1,2,4]triazin]-7′-yl)amino)benzamide] | 187 | > 1000 | 727 | 14 | 82 | 216 | 61 | 398
NC(=O)c1ccc(Nc2ncc3cc4n(c3n2)C2(CCCCC2)C(=O)NN4)cc1 [Compound 63, 4-((3′-oxo-2′,3′-dihydro-1′H-spiro[cyclohexane-1,4′-pyrimido[5′,4′:4,5]pyrrolo[2,1-c][1,2,4]triazin]-7′-yl)amino)benzamide] | 96 | 579 | 574 | 33 | 253 | 578 | 81 | 118
CNC(=O)c1ccc(Nc2ncc3cc4n(c3n2)C2(CCCCC2)C(=O)NN4)cc1 [Compound 64, N-methyl-4-((3′-oxo-2′,3′-dihydro-1′H-spiro[cyclohexane-1,4′-pyrimido[5′,4′:4,5]pyrrolo[2,1-c][1,2,4]triazin]-7′-yl)amino)benzamide] | 105 | > 1000 | 505 | 23 | 132 | 417 | 85 | 85
O=C(c1ccc(Nc2ncc3cc4n(c3n2)C2(CCCCC2)C(=O)NN4)cc1)N1CCOCC1 [Compound 74, 7′-((4-(morpholine-4-carbonyl)phenyl)amino)-1′,2′-dihydro-3′H-spiro[cyclohexane-1,4′-pyrimido[5′,4′:4,5]pyrrolo[2,1-c][1,2,4]triazin]-3′-one] | 106 | > 1000 | 258 | 8 | 60 | 137 | 29 | 653
